In experiment [1] the test system is buckhorn plantain (Plantago lanceolata, PLALA). Description: Field trial, post-emergence foliar application, weed control of buckhorn plantain. It counts as in vivo. The settings on record: applied alone. An excerpt: The (a) aminocyclopyrachlor or an agriculturally acceptable salt or ester thereof is mixed with or applied in combination with (b) clopyralid or an agriculturally acceptable salt or ester thereof in an amount sufficient to induce a synergistic herbicidal effect. […] As described in the Herbicide Handbook of the Weed Science Society of America, Ninth Edition, 2007, p. 429, “'synergism' [is] an interaction of two or more factors such that the effect when combined is greater than the predicted effect based on the response to each factor applied separately.” Synergistic in the herbicide context can mean that the use of (a) and (b) as defined above results in an increased weed control effect compared to the weed control effects that are possible with the use of (a) or (b) alone. In some embodiments, the damage or injury to the undesired vegetation caused by the compositions and methods disclosed herein is evaluated using a scale from 0% to 100%, when compared with the untreated control vegetation, wherein 0% indicates no damage to the undesired vegetation and 100% indicates complete destruction of the undesired vegetation. […] 22 (1967) Field trials were conducted with applications made to established grassland with naturally occurring weed populations. The target plants were treated with postemergence foliar applications when they reached three to five inches tall. All treatments were applied using a randomized complete block trial design, with 4 replications per treatment. Treatments consisted of aminocyclopyrachlor in acid form and clopyralid-olamine, each in water and applied alone or in combination. Spray solutions were prepared using an appropriate amount of dilution to form a 2 L aqueous spray solution with active ingredients in single and two way combinations. Formulated compounds were applied to the plant material with a backpack sprayer equipped with 8003 nozzles calibrated to deliver 187 L/ha at a spray height of 18 inches (43 centimeters (cm)) above average plant canopy. The treated plants were buckhorn plantain (Plantago lanceolata, PLALA) and […] clover (Medicago arabica, MEDAB). The treated plots and control plots were rated blind at various intervals after application. Ratings were based on a scale of 0-100%, as discussed above, wherein 0% indicates no damage to the undesired vegetation and 100% indicates complete destruction of the undesired vegetation Colby's equation was used to determine the herbicidal effects expected from the mixtures, as described above. The results were measured at 7 days and 27 days after the first application of the compositions. […] The herbicide tank mix combinations tested, application rates and ratios employed, plant species tested, and results are given below.

Experiment [2] deals with calvary clover (Medicago arabica, MEDAB). As to the kind of experiment: Field trial, post-emergence foliar application, weed control of calvary clover. It counts as in vivo. The following applies: 27 days, applied alone. An excerpt:
The (a) aminocyclopyrachlor or an agriculturally acceptable salt or ester thereof is mixed with or applied in combination with (b) clopyralid or an agriculturally acceptable salt or ester thereof in an amount sufficient to induce a synergistic herbicidal effect. […] As described in the Herbicide Handbook of the Weed Science Society of America, Ninth Edition, 2007, p. 429, “'synergism' [is] an interaction of two or more factors such that the effect when combined is greater than the predicted effect based on the response to each factor applied separately.” Synergistic in the herbicide context can mean that the use of (a) and (b) as defined above results in an increased weed control effect compared to the weed control effects that are possible with the use of (a) or (b) alone. In some embodiments, the damage or injury to the undesired vegetation caused by the compositions and methods disclosed herein is evaluated using a scale from 0% to 100%, when compared with the untreated control vegetation, wherein 0% indicates no damage to the undesired vegetation and 100% indicates complete destruction of the undesired vegetation. […] 22 (1967) Field trials were conducted with applications made to established grassland with naturally occurring weed populations. The target plants were treated with postemergence foliar applications when they reached three to five inches tall. All treatments were applied using a randomized complete block trial design, with 4 replications per treatment. Treatments consisted of aminocyclopyrachlor in acid form and clopyralid-olamine, each in water and applied alone or in combination. Spray solutions were prepared using an appropriate amount of dilution to form a 2 L aqueous spray solution with active ingredients in single and two way combinations. Formulated compounds were applied to the plant material with a backpack sprayer equipped with 8003 nozzles calibrated to deliver 187 L/ha at a spray height of 18 inches (43 centimeters (cm)) above average plant canopy. […] The results were measured at 7 days and 27 days after the first application of the compositions. […]

`Nc1nc(C2CC2)nc(C(=O)O)c1Cl` [Aminocyclopyrachlor, 6-amino-5-chloro-2-cyclopropylpyrimidine-4-carboxylic acid]: the “Mean % weed control” value in experiment [1] (7 days, 18 g ae/ha) is 18.75%; in experiment [1] (27 days, 18 g ae/ha) it was 22.5%; in experiment [1] (27 days, 35 g ae/ha) it was 35%; in experiment [2] (18 g ae/ha), 27.5%.
Take `O=C(O)c1nc(Cl)ccc1Cl` [Clopyralid-olamine, clopyralid-olamine]: the “Mean % weed control” value is reported as 18% in experiment [1] (7 days, 35 g ae/ha); 28% in experiment [1] (27 days, 70 g ae/ha); 13% in experiment [2] (35 g ae/ha); 30% in experiment [2] (70 g ae/ha).
